Reference: patent US20060029654A1, “Analgesic patch for sports injury rehabilitation medicine and method to alleviate pain” (priority 2004, published 2006)

Tested on: pain in the right shoulder and right lateral thigh (right rotator cuff tendonitis and right lateral fasciaitis)
Conditions: prior treatment history; injection into the pain trigger zone

C[C@]12CCC(=O)C=C1CC[C@@H]1[C@@H]2C(=O)C[C@@]2(C)[C@H]1CC[C@]2(O)C(=O)CO [cortisone]
duration of temporary pain relief: 4 to 6 weeks
